Assay results reported in patent US20200157144A1, “ANTIMICROBIAL PEPTIDOMIMETICS” (priority 2017, published 2020).
≈ marks a conversion by molar mass, not a printed value. Square brackets hold non-standard residues; d marks the D form. Peptide text beside a SMILES is read from it. Bip(4'-Cl) = N[C@@H](Cc1ccc(-c2ccc(Cl)cc2)cc1)C(=O)O; dBip(4'-Cl) = N[C@H](Cc1ccc(-c2ccc(Cl)cc2)cc1)C(=O)O; Bip(4'-Me) = Cc1ccc(-c2ccc(C[C@H](N)C(=O)O)cc2)cc1; Bip = N[C@@H](Cc1ccc(-c2ccccc2)cc1)C(=O)O; dBip = N[C@H](Cc1ccc(-c2ccccc2)cc1)C(=O)O; Phe(4-Br) = N[C@@H](Cc1ccc(Br)cc1)C(=O)O; Phe(4-Cl) = N[C@@H](Cc1ccc(Cl)cc1)C(=O)O; Phe(4-I) = N[C@@H](Cc1ccc(I)cc1)C(=O)O; Phe(4-Me) = Cc1ccc(C[C@H](N)C(=O)O)cc1

The molecules below were run on Mupirocin-resistant MRSA ATCC-BAA-1556 (assay: microbe, parasite or virus in culture). Settings: ATCC-BAA-1556; read-out: MIC.
Format: cell-based, Staphylococcus aureus
Procedure: The MICs of test compounds were determined using the microdilution method from the Clinical and Laboratory Standards Institute (CLSI) guidelines (Clinical and Laboratory Standards Institute. Methods for dilution antimicrobial susceptibility tests for bacteria that grow aerobically; approved standard—ninth edition. Document M07-A9. Vol. 32 No. 2. Wayne, Pa.: CLSI; 2012). Briefly, bacteria were grown fresh from frozen stock in Mueller Hinton 2 (MH2) agar at 37° C. After an overnight incubation, 5 bacteria colonies were selected to grow in cation-adjusted MH2 broth in a shaking incubator (140 RPM) at 37° C. Cells were grown to an optical density (OD600) of 0.15-0.16 determined using a spectrophotometer (Molecular Devices Spectra Max Plus), which corresponds to ˜1×10^8 CFU/mL. Test compounds were constituted into 4 mM DMSO stock solutions and then subjected to 2-fold serial dilution in a 96-well plate with concentrations ranging from 100 to 0.195 μM in duplicates. […] of microbial culture containing ˜1×10^6 CFU/mL of microbes in the respective broths was introduced into each well containing 50 μL of compound solution. After an overnight incubation at 35° C., (220 RPM), OD600 measurements were conducted using the microplate spectrophotometer. The MIC was defined as the lowest antibiotic or compound concentration (μM) required to inhibit bacteria growth.
The 11th well was used as the growth control well (medium with bacterial inoculums, no antibacterial) while the 12th well was the sterility control well (medium only).

Compound | MIC [µM]
N=C(N)NCCC[C@H](NC(=O)[C@H](Cc1ccc(Br)cc1)NC(=O)[C@H](CCCNC(=N)N)NC(=O)[C@@H](N)Cc1ccc(-c2ccccc2)cc1)C(N)=O [Compound 12] (H-[Bip]R[Phe(4-Br)]R-NH2) | 100 (≈ 77.9 µg/mL)
N=C(N)NCCC[C@@H](NC(=O)[C@H](N)Cc1ccc(-c2ccc(Cl)cc2)cc1)C(N)=O [Compound 37] | >100
N=C(N)NCCC[C@H](NC(=O)[C@@H](N)Cc1ccc(-c2ccc(Cl)cc2)cc1)C(=O)N[C@@H](Cc1ccc(-c2ccc(Cl)cc2)cc1)C(=O)N[C@H](CCCNC(=N)N)C(N)=O [Compound 45] (H-[Bip(4'-Cl)]R[Bip(4'-Cl)][dR]-NH2) | 6.25 (≈ 5.28 µg/mL)
N=C(N)NCCC[C@H](NC(=O)[C@H](Cc1ccc(Cl)cc1)NC(=O)[C@H](CCCNC(=N)N)NC(=O)[C@@H](N)Cc1ccc(-c2ccccc2)cc1)C(N)=O [Compound 10] (H-[Bip]R[Phe(4-Cl)]R-NH2) | 100 (≈ 73.4 µg/mL)
NC(=O)NCCC[C@@H](N)C(=O)N[C@H](Cc1ccc(-c2ccc(Cl)cc2)cc1)C(N)=O [Compound 38] | >100
CC(C)(C)c1ccc(-c2ccc(C[C@H](NC(=O)[C@H](CCCNC(=N)N)NC(=O)[C@@H](N)Cc3ccc(-c4ccccc4)cc3)C(=O)N[C@@H](CCCNC(=N)N)C(N)=O)cc2)cc1 [Compound 24] | 12.5 (≈ 10.4 µg/mL)
N=C(N)NCCC[C@H](NC(=O)[C@@H](Cc1ccc(-c2ccc(Cl)cc2)cc1)NC(=O)[C@H](CCCNC(=N)N)NC(=O)[C@@H](N)Cc1ccc(-c2ccc(Cl)cc2)cc1)C(N)=O [Compound 44] (H-[Bip(4'-Cl)]R[dBip(4'-Cl)]R-NH2) | 6.25 (≈ 5.28 µg/mL)
N=C(N)NCCC[C@H](NC(=O)[C@H](Cc1ccc(-c2ccccc2)cc1)NC(=O)[C@H](CCCNC(=N)N)NC(=O)[C@@H](N)Cc1ccc(Br)cc1)C(N)=O [Compound 11] (H-[Phe(4-Br)]R[Bip]R-NH2) | 50 (≈ 38.9 µg/mL)
Cc1ccc(C[C@H](N)C(=O)N[C@@H](CCCNC(=N)N)C(=O)N[C@@H](Cc2ccc(-c3ccccc3)cc2)C(=O)N[C@@H](CCCNC(=N)N)C(N)=O)cc1 [Compound 7] (H-[Phe(4-Me)]R[Bip]R-NH2) | 100 (≈ 71.4 µg/mL)
N=C(N)NCCC[C@H](NC(=O)[C@H](Cc1ccc(-c2ccc(Cl)cc2)cc1)NC(=O)[C@@H](CCCNC(=N)N)NC(=O)[C@@H](N)Cc1ccc(-c2ccc(Cl)cc2)cc1)C(N)=O [Compound 43] (H-[Bip(4'-Cl)][dR][Bip(4'-Cl)]R-NH2) | 6.25 (≈ 5.28 µg/mL)
N=C(N)NCCC[C@H](NC(=O)[C@H](Cc1ccc(-c2ccccc2)cc1)NC(=O)[C@H](CCCNC(=N)N)NC(=O)[C@@H](N)Cc1ccc(Cl)cc1)C(N)=O [Compound 9] (H-[Phe(4-Cl)]R[Bip]R-NH2) | 100 (≈ 73.4 µg/mL)
N=C(N)NCCC[C@H](NC(=O)[C@H](Cc1ccc(I)cc1)NC(=O)[C@H](CCCNC(=N)N)NC(=O)[C@@H](N)Cc1ccc(-c2ccccc2)cc1)C(N)=O [Compound 14] (H-[Bip]R[Phe(4-I)]R-NH2) | 100 (≈ 82.6 µg/mL)
N=C(N)NCCC[C@@H](N)C(=O)N[C@H](Cc1ccc(-c2ccc(Cl)cc2)cc1)C(=O)N[C@H](CCCNC(=N)N)C(=O)N[C@H](Cc1ccc(-c2ccc(Cl)cc2)cc1)C(=O)N[C@H](CCCNC(=N)N)C(N)=O [Compound 39] (H-[dR][dBip(4'-Cl)][dR][dBip(4'-Cl)][dR]-NH2) | 3.125 (≈ 3.13 µg/mL)
N=C(N)NCCC[C@H](NC(=O)[C@H](Cc1ccc(-c2ccc(Cl)cc2)cc1)NC(=O)[C@H](CCCNC(=N)N)NC(=O)[C@H](N)Cc1ccc(-c2ccc(Cl)cc2)cc1)C(N)=O [Compound 42] (H-[dBip(4'-Cl)]R[Bip(4'-Cl)]R-NH2) | 6.25 (≈ 5.28 µg/mL)
N=C(N)NCCCCNC(=O)[C@H](Cc1ccc(-c2ccc(Cl)cc2)cc1)NC(=O)[C@H](CCCNC(=N)N)NC(=O)[C@@H](N)Cc1ccc(-c2ccc(Cl)cc2)cc1 [Compound 41] | 6.25 (≈ 5.01 µg/mL)
N=C(N)NCCC[C@@H](NC(=O)[C@@H](Cc1ccc(-c2ccc(Cl)cc2)cc1)NC(=O)[C@H](N)CCCNC(N)=O)C(N)=O [Compound 36] | >100
CC(C)(C)c1cc(-c2ccc(C[C@H](N)C(=O)N[C@@H](CCCNC(=N)N)C(=O)N[C@@H](Cc3ccc(-c4ccccc4)cc3)C(=O)N[C@@H](CCCNC(=N)N)C(N)=O)cc2)cc(C(C)(C)C)c1 [Compound 29] | 50 (≈ 44.4 µg/mL)
N=C(N)NCCC[C@@H](NC(=O)[C@H](N)Cc1ccc(-c2ccc(Cl)cc2)cc1)C(=O)N[C@H](Cc1ccc(-c2ccc(Cl)cc2)cc1)C(N)=O [Compound 35] | 6.25 (≈ 4.3 µg/mL)
Cc1ccc(C[C@H](NC(=O)[C@H](CCCNC(=N)N)NC(=O)[C@@H](N)Cc2ccc(-c3ccccc3)cc2)C(=O)N[C@@H](CCCNC(=N)N)C(N)=O)cc1 [Compound 8] (H-[Bip]R[Phe(4-Me)]R-NH2) | >100
N=C(N)NCCC[C@H](NC(=O)[C@H](Cc1ccc(-c2ccccc2)cc1)NC(=O)[C@H](CCCNC(=N)N)NC(=O)[C@@H](N)Cc1ccc(I)cc1)C(N)=O [Compound 13] (H-[Phe(4-I)]R[Bip]R-NH2) | 50 (≈ 41.3 µg/mL)
N=C(N)NCCC[C@@H](NC(=O)[C@H](N)Cc1ccc(-c2ccc(Cl)cc2)cc1)C(=O)N[C@H](Cc1ccc(-c2ccc(Cl)cc2)cc1)C(=O)N[C@H](CCCNC(=N)N)C(=O)N[C@H](Cc1ccc(-c2ccc(Cl)cc2)cc1)C(N)=O [Compound 40] (H-[dBip(4'-Cl)][dR][dBip(4'-Cl)][dR][dBip(4'-Cl)]-NH2) | >100
CC(C)(C)c1cc(-c2ccc(C[C@H](NC(=O)[C@H](CCCNC(=N)N)NC(=O)[C@@H](N)Cc3ccc(-c4ccccc4)cc3)C(=O)N[C@@H](CCCNC(=N)N)C(N)=O)cc2)cc(C(C)(C)C)c1 [Compound 30] | 50 (≈ 44.4 µg/mL)
CC(C)(C)c1ccc(-c2ccc(C[C@H](N)C(=O)N[C@@H](CCCNC(=N)N)C(=O)N[C@@H](Cc3ccc(-c4ccccc4)cc3)C(=O)N[C@@H](CCCNC(=N)N)C(N)=O)cc2)cc1 [Compound 23] | 12.5 (≈ 10.4 µg/mL)

Second part, the molecule after the results:

MIC [µM] | Compound
6.25 (≈ 5.34 µg/mL) | N=C(N)NCCC[C@H](NC(=O)[C@H](Cc1ccc(-c2ccc(Br)cc2)cc1)NC(=O)[C@H](CCCNC(=N)N)NC(=O)[C@@H](N)Cc1ccc(-c2ccccc2)cc1)C(N)=O [Compound 20]
6.25 (≈ 5.07 µg/mL) | N=C(N)NCCC[C@H](NC(=O)[C@H](Cc1ccc(-c2cccc(Cl)c2)cc1)NC(=O)[C@H](CCCNC(=N)N)NC(=O)[C@@H](N)Cc1ccc(-c2ccccc2)cc1)C(N)=O [Compound 28]
6.25 (≈ 5.28 µg/mL) | N=C(N)NCCC[C@H](NC(=O)[C@H](Cc1ccc(-c2ccccc2)cc1)NC(=O)[C@H](CCCNC(=N)N)NC(=O)[C@@H](N)Cc1ccc(-c2ccc(Cl)c(Cl)c2)cc1)C(N)=O [Compound 17]
>100 | N=C(N)NCCC[C@H](NC(=O)[C@H](Cc1ccccc1)NC(=O)[C@H](CCCNC(=N)N)NC(=O)[C@@H](N)Cc1ccc(-c2ccccc2)cc1)C(N)=O [Compound 6] (H-[Bip]RFR-NH2)
12.5 (≈ 9.87 µg/mL) | Cc1ccc(-c2ccc(C[C@H](N)C(=O)N[C@@H](CCCNC(=N)N)C(=O)N[C@@H](Cc3ccc(-c4ccccc4)cc3)C(=O)N[C@@H](CCCNC(=N)N)C(N)=O)cc2)cc1 [Compound 21] (H-[Bip(4'-Me)]R[Bip]R-NH2)
>100 | N=C(N)NCCC[C@H](NC(=O)[C@H](Cc1ccc(-c2ccccc2)cc1)NC(=O)[C@H](CCCNC(=N)N)NC(=O)[C@@H](N)Cc1ccccc1)C(N)=O [Compound 5] (H-FR[Bip]R-NH2)
12.5 (≈ 9.7 µg/mL) | N=C(N)NCCC[C@@H](NC(=O)[C@@H](Cc1ccc(-c2ccccc2)cc1)NC(=O)[C@@H](CCCNC(=N)N)NC(=O)[C@H](N)Cc1ccc(-c2ccccc2)cc1)C(N)=O [Compound 4] (H-[dBip][dR][dBip][dR]-NH2)
25 (≈ 21.3 µg/mL) | N=C(N)NCCC[C@H](NC(=O)[C@H](Cc1ccc(-c2ccc(-c3ccccc3)cc2)cc1)NC(=O)[C@H](CCCNC(=N)N)NC(=O)[C@@H](N)Cc1ccc(-c2ccccc2)cc1)C(N)=O [Compound 26]
6.25 (≈ 5.28 µg/mL) | N=C(N)NCCC[C@H](NC(=O)[C@H](Cc1ccc(-c2ccc(Cl)c(Cl)c2)cc1)NC(=O)[C@H](CCCNC(=N)N)NC(=O)[C@@H](N)Cc1ccc(-c2ccccc2)cc1)C(N)=O [Compound 18]
50 (≈ 38.8 µg/mL) | N=C(N)NCCC[C@H](NC(=O)[C@H](Cc1ccc(-c2ccccc2)cc1)NC(=O)[C@H](CCCNC(=N)N)NC(=O)[C@@H](N)Cc1ccc(-c2ccccc2)cc1)C(N)=O [Compound 32] (H-[Bip]R[Bip]R-NH2)
6.25 (≈ 5.07 µg/mL) | N=C(N)NCCC[C@H](NC(=O)[C@H](Cc1ccc(-c2ccccc2)cc1)NC(=O)[C@H](CCCNC(=N)N)NC(=O)[C@@H](N)Cc1ccc(-c2cccc(Cl)c2)cc1)C(N)=O [Compound 27]
6.25 (≈ 5.34 µg/mL) | N=C(N)NCCC[C@H](NC(=O)[C@H](Cc1ccc(-c2ccccc2)cc1)NC(=O)[C@H](CCCNC(=N)N)NC(=O)[C@@H](N)Cc1ccc(-c2ccc(Br)cc2)cc1)C(N)=O [Compound 19]
6.25 (≈ 5.07 µg/mL) | N=C(N)NCCC[C@H](NC(=O)[C@H](Cc1ccc(-c2ccc(Cl)cc2)cc1)NC(=O)[C@H](CCCNC(=N)N)NC(=O)[C@@H](N)Cc1ccc(-c2ccccc2)cc1)C(N)=O [Compound 16] (H-[Bip]R[Bip(4'-Cl)]R-NH2)
100 (≈ 77.6 µg/mL) | N=C(N)NCCC[C@H](NC(=O)[C@H](Cc1ccc(-c2ccccc2)cc1)NC(=O)[C@H](CCCNC(=N)N)NC(=O)[C@@H](N)Cc1ccc(-c2ccccc2)cc1)C(N)=O [Compound 31] (H-[Bip]R[Bip]R-NH2)
